pEC50, pIC50: −log10 of the molar value. Where a name gives a salt, the structure may show the parent alone.
Assays:
[1] = test system: multiple myeloma cell line NCl-H929; experiment: H929 Cell Viability Assay; type: cell-based, human; conditions: Homo sapiens, NCI-H929, 48 h, H929, read-out: 48 hr H929 Viability Celltiter-Glo: Mean EC50
Experimental: The human multiple myeloma cell line NCl-H929 was cultured in Advanced RPMI 1640 media (Gibco®) supplemented with 6% fetal bovine serum, 2 mM Glutamine, and 1× Penicillin/Streptomycin. On the day of assay, cells were resuspended in RPMI 1640 media supplemented with 10% fetal bovine serum, 2 mM Glutamine, and 1× Penicillin/Streptmycin and plated in 384-well tissue culture plates and treated with compound dilutions in DMSO/media. Plates were incubated at 37° C., 5% CO2 for 48 hours. After 48 hours, Celltiter-Glo® (Promega) was added to each well and luciferase signal was quantified using Tecan Infinite M1000 Pro for cell viability determination.
(§1) For chemical structures that include one or more stereoisomers, but are illustrated without indicating stereochemistry, the assay data refers to a mixture of stereoisomers.

[2] = In Vitro Microsome Stability Assay (mouse); type: in vitro ADME; conditions: mouse, 30 min, NADPH
Experimental: (§2) Potassium phosphate (423 μL of a 0.1 M solution) was added to 8-strip deep well tubes followed by human, mouse, rat, or monkey microsomes (25 μL of a 20 mg/mL solution). The tubes were then placed on ice and the test article (2 μL of a 0.25 mM solution in DMSO) was added. The mixture was preincubated at 37° C. for 3 to 5 minutes (shaking at 150 rpm) then the reaction was initiated by adding 50 μL NADPH. An aliquot of samples (100 μL) were collected at 0 and 30 min and 200 μL of an acetonitrile mixture containing IS (compound 914) was added to quench the reaction. After centrifuging for 10 min at 4000 rpm, a mixed solution of the 20 μL of the supernatant (20 μL) plus 100 μL ACN/H2O (1:1) were injected for LC-MS/MS analysis. Liver microsome stability is assessed by the % remaining of compound at 30 min which is calculated using the following equation: [(AUCanalyteT=30/AUCIS)/(AUCanalyteT=0/AUCIS)]*100
as §1

[3] = test system: PD1 signal sequence plus 10 amino acids fused to Gaussia Luciferase (PD1-ss+10aa/Gaussia Luciferase); experiment: Dox Induced PD1-ss-Gluc Assay; type: cell-based; conditions: 24 hr, 293FRT/TO; read-out: 24 hr Dox Inducible PD1ssGluc 293FRT/TO: Mean IC50
Source text: FIp-In 293 T-REx™ cells were transfected with pcDNA™5/FRT/TO plasmid inserted with cDNA encoding Gaussia Luciferase fused to the 3′ end of cDNA encoding PD1 signal sequence plus 10 amino acids (N-[…]-C) (SEQ ID NO: 1). Transfected cells were selected for resistance to the selectable markers Hygromycin and Blasticidin to create a stable cell line that contained the PD1-ss+10aa/Gaussia Luciferase cDNA insert whose expression was regulated under the T-REx™ system. The day before assay, cells were trypsinized and plated in 384-well tissue culture plates. The next day, compound dilutions in DMSO/media containing doxycycline were added to the wells and incubated at 37° C., 5% CO2.
as §1

[4] = In Vitro Microsome Stability Assay (rat); type: in vitro ADME; conditions: rat, 30 min, NADPH
Experimental: as §2, §1

[5] = In Vitro Microsome Stability Assay (monkey); type: in vitro ADME; conditions: monkey, 30 min, NADPH
Experimental: as §2, §1

[6] = test system: multiple myeloma cell line U266B1; experiment: U266 Cell Viability Assay; type: cell-based, human; conditions: Homo sapiens, U-266; 48 hr, U266; read-out: 48 hr U266 Viability Celltiter-Glo: Mean EC50
Experimental: The human multiple myeloma cell line U266B1 was cultured in RPMI 1640 media supplemented with 10% fetal bovine serum, 2 mM Glutamine, and 1× Penicillin/Streptomycin. Cells were plated in 384-well tissue culture plates and treated with compound dilutions in DMSO/media. Plates were incubated at 37° C., 5% CO2 for 48 hours. After 48 hours, Celltiter-Glo® (Promega) was added to each well and luciferase signal was quantified using Tecan Infinite M1000 Pro for cell viability determination.
For chemical structures that include one or more stereoisomers, but are illustrated without indicating stereochemistry, the assay data refers to a mixture of stereoisomers

[7] = In Vitro Microsome Stability Assay (human); type: in vitro ADME; conditions: human, 30 min, NADPH
Experimental: as §2, §1

[8] = test system: full length TNFα (amino acids 1-233) fused to Gaussia Luciferase; experiment: Dox Induced TNFα-FL-Gluc Assay; type: cell-based; conditions: 24 hr, 293FRT/TO; read-out: 24 hr Dox Inducible TNFaFLGluc 293FRT/TO: Mean IC50
Source text: FIp-In 293 T-REx™ cells were transfected with pcDNA™5/FRT/TO plasmid inserted with cDNA encoding Gaussia Luciferase fused to the 3′ end of cDNA encoding full length TNFα (amino acids 1-233). Transfected cells were selected for resistance to the selectable markers Hygromycin and Blasticidin to create a stable cell line that contained the TNFα-FL/Gaussia Luciferase cDNA insert whose expression was regulated under the T-REx™ system. The day before assay, cells were trypsinized and plated in 384-well tissue culture plates. The next day, compound dilutions in DMSO/media containing doxycycline were added to the wells and incubated at 37° C., 5% CO2.
as §1

Compound | pEC50 [1] | Liver Microsome Stability-% Left after 30 min w/ NADPH (%) Mouse [2] | pIC50 [3] | Liver Microsome Stability-% Left after 30 min w/ NADPH (%) Rat [4] | Liver Microsome Stability-% Left after 30 min w/ NADPH (%) Monkey [5] | pEC50 [6] | Liver Microsome Stability-% Left after 30 min w/ NADPH (%) Human [7] | pIC50 [8]
COc1ccccc1S(=O)(=O)N1CCCN(CC2CCCCC2)CCCN(S(=O)(=O)N2CCCCC2)CC2(CC2)C1 [A33, 9-(cyclohexylmethyl)-5-(2-methoxybenzenesulfonyl)-13-(piperidine-1-sulfonyl)-5,9,13-triazaspiro[2.11]tetradecane] | < 4.60 | 0.08% | < 4.60 | 0.13% | 0.07% | < 4.60 | 0.05% | < 4.60
CN(C)c1ccc(S(=O)(=O)N2CCCN(CC3CCCCC3)CCCN(S(=O)(=O)N3CCCCC3)CC3(COC3)C2)cc1 [A17, 4-{[10-(cyclohexylmethyl)-14-(piperidine-1-sulfonyl)-2-oxa-6,10,14-triazaspiro[3.11]pentadecan-6-yl]sulfonyl}-N,N-dimethylaniline] | < 4.60 | 0.41% | 6.03 | 1.06% | 0.36% | < 4.60 | 0.49% | < 4.60
O=C(c1ccc(Cl)cc1)N1CCCN(S(=O)(=O)N2CCCCC2)CC2(CC2)CN(S(=O)(=O)N2CCCCC2)CCC1 [A24, (5,13-bis(piperidin-1-ylsulfonyl)-5,9,13-triazaspiro[2.11]tetradecan-9-yl)(4-chlorophenyl)methanone] | < 4.60 | 0.13% | < 4.60 | 0.04% | 0.03% | < 4.60 | 0.03% | < 4.60
O=S(=O)(N1CCCCC1)N1CCCN(Cc2ccccc2)CCCN(S(=O)(=O)N2CCCCC2)CC2(CC2)C1 [A18, 9-benzyl-5,13-bis(piperidin-1-ylsulfonyl)-5,9,13-triazaspiro[2.11]tetradecane hydrochloride] | < 4.60 | 0.05% | < 4.60 | 0.11% | 0.05% | 4.81 | 0.04% | < 4.60
CN(C)c1ccc(S(=O)(=O)N2CCCN(CC3CCCCC3)CCCN(S(=O)(=O)N3CCC(O)CC3)CC3(CC3)C2)cc1 [A28, 1-{[9-(cyclohexylmethyl)-13-[4-(dimethylamino)benzenesulfonyl]-5,9,13-triazaspiro[2.11]tetradecan-5-yl]sulfonyl}piperidin-4-ol] | 4.98 | 0.06% | 5.28 | 0.14% | 0.06% | < 4.60 | – | < 4.60

Reference: US11578055B2, “Triazacyclododecansulfonamide (“TCD”)-based protein secretion inhibitors” (KEZAR LIFE SCIENCES, priority 2018, dated 2023)
